# Test results reported in ChEMBL document CHEMBL3232964, “Quinone-carbohydrate nonglucoside conjugates as a new type of cytotoxic agents: synthesis and determination of in vitro activity” (Eur J Med Chem, 2014).
# Calls of active or inactive are those of the source. The rule behind the calls is not given here.
# Columns and labels:
# [1] = Induction of apoptosis in tumor promotion-sensitive mouse JB6 Cl41 cells assessed as viable cells at 2.5 uM after 24 hrs by Annexin-V-FITC/propidium iodide staining based flow cytometry (reference value: 94.33 +/- 0.87%); type: cell-based; conditions: read-out: Activity
# [2] = Induction of apoptosis in tumor promotion-sensitive mouse JB6 Cl41 cells assessed as dead cells at 2.5 uM after 24 hrs by Annexin-V-FITC/propidium iodide staining based flow cytometry (reference value: 2.99 +/- 0.82%); type: cell-based; conditions: jb6 cl41, 24 h
# [3] = Induction of apoptosis in tumor promotion-sensitive mouse JB6 Cl41 cells assessed as early apoptotic cells at 5 uM after 24 hrs by Annexin-V-FITC/propidium iodide staining based flow cytometry (reference value: 2.15 +/- 1.18%); type: cell-based; conditions: jb6 cl41, 24 h
# [4] = Induction of apoptosis in tumor promotion-sensitive mouse JB6 Cl41 cells assessed as late apoptotic/necrotic cells at 5 uM after 24 hrs by Annexin-V-FITC/propidium iodide staining based flow cytometry (reference value: 0.53 +/- 0.47%); type: cell-based; conditions: jb6 cl41, 24 h
# [5] = Induction of apoptosis in tumor promotion-sensitive mouse JB6 Cl41 cells assessed as viable cells at 5 uM after 24 hrs by Annexin-V-FITC/propidium iodide staining based flow cytometry (reference value: 94.33 +/- 0.87%); type: cell-based; conditions: read-out: Activity
# [6] = Induction of apoptosis in tumor promotion-sensitive mouse JB6 Cl41 cells assessed as dead cells at 5 uM after 24 hrs by Annexin-V-FITC/propidium iodide staining based flow cytometry (reference value: 2.99 +/- 0.82%); type: cell-based; conditions: jb6 cl41, 24 h
# [7] = Induction of apoptosis in tumor promotion-sensitive mouse JB6 Cl41 cells assessed as early apoptotic cells at 10 uM after 24 hrs by Annexin-V-FITC/propidium iodide staining based flow cytometry (reference value: 2.15 +/- 1.18%); type: cell-based; conditions: jb6 cl41, 24 h
# [8] = Induction of apoptosis in tumor promotion-sensitive mouse JB6 Cl41 cells assessed as late apoptotic/necrotic cells at 10 uM after 24 hrs by Annexin-V-FITC/propidium iodide staining based flow cytometry (reference value: 0.53 +/- 0.47%); type: cell-based; conditions: jb6 cl41, 24 h
# [9] = Induction of apoptosis in tumor promotion-sensitive mouse JB6 Cl41 cells assessed as viable cells at 10 uM after 24 hrs by Annexin-V-FITC/propidium iodide staining based flow cytometry (reference value: 94.33 +/- 0.87%); type: cell-based; conditions: read-out: Activity
# [10] = Induction of apoptosis in tumor promotion-sensitive mouse JB6 Cl41 cells assessed as dead cells at 10 uM after 24 hrs by Annexin-V-FITC/propidium iodide staining based flow cytometry (reference value: 2.99 +/- 0.82%); type: cell-based; conditions: jb6 cl41, 24 h
# [11] = target: Cellular tumor antigen p53 (Mus musculus) (UniProt P02340); test: Inhibition of p53-dependent transcriptional activity in tumor promotion-sensitive mouse JB6 Cl41 cells after 12 hrs by luciferase-based method; type: cell-based
# [12] = test system: HeLa; test: Cytotoxicity against human HeLa cells assessed as cell viability after 24 hrs by MTS assay; type: functional, cell-based
# [13] = test system: HeLa; test: Cytotoxicity against human HeLa cells assessed as cell viability after 48 hrs by MTS assay; type: functional, cell-based
# [14] = Cytotoxicity against tumor promotion-sensitive mouse JB6 Cl41 cells assessed as cell viability after 48 hrs by MTS assay; type: cell-based; conditions: JB6 Cl41, 48 h
# [15] = test system: HeLa; test: Cytotoxicity against human HeLa cells assessed as inhibition of number of colonies formed in soft agar after 14 days by microscopic analysis; type: functional
# [16] = test system: HeLa; test: Ratio of IC50 to INCC50 for human HeLa cells; type: functional
# [17] = test system: HeLa; test: Induction of p53-independent apoptosis in human HeLa cells assessed as early apoptotic cells at 2.5 uM after 24 hrs by Annexin-V-FITC/propidium iodide double staining based flow cytometry (reference value: 6.71 +/- 4.41%); type: functional
# [18] = test system: HeLa; test: Induction of p53-independent apoptosis in human HeLa cells assessed as late apoptotic/necrotic cells at 2.5 uM after 24 hrs by Annexin-V-FITC/propidium iodide double staining based flow cytometry (reference value: 0.88 +/- 0.72%); type: functional
# [19] = test system: HeLa; test: Induction of p53-independent apoptosis in human HeLa cells assessed as viable cells at 2.5 uM after 24 hrs by Annexin-V-FITC/propidium iodide double staining based flow cytometry (reference value: 88.52 +/- 11%); type: functional; conditions: read-out: Activity
# [20] = test system: HeLa; test: Induction of p53-independent apoptosis in human HeLa cells assessed as dead cells at 2.5 uM after 24 hrs by Annexin-V-FITC/propidium iodide double staining based flow cytometry (reference value: 3.89 +/- 0.3%); type: functional
# [21] = test system: HeLa; test: Induction of p53-independent apoptosis in human HeLa cells assessed as early apoptotic cells at 5 uM after 24 hrs by Annexin-V-FITC/propidium iodide double staining based flow cytometry (reference value: 6.71 +/- 4.41%); type: functional
# [22] = test system: HeLa; test: Induction of p53-independent apoptosis in human HeLa cells assessed as late apoptotic/necrotic cells at 5 uM after 24 hrs by Annexin-V-FITC/propidium iodide double staining based flow cytometry (reference value: 0.88 +/- 0.72%); type: functional
# [23] = test system: HeLa; test: Induction of p53-independent apoptosis in human HeLa cells assessed as viable cells at 5 uM after 24 hrs by Annexin-V-FITC/propidium iodide double staining based flow cytometry (reference value: 88.52 +/- 11%); type: functional; conditions: read-out: Activity
# [24] = test system: HeLa; test: Induction of p53-independent apoptosis in human HeLa cells assessed as dead cells at 5 uM after 24 hrs by Annexin-V-FITC/propidium iodide double staining based flow cytometry (reference value: 3.89 +/- 0.3%); type: functional
# [25] = test system: HeLa; test: Induction of p53-independent apoptosis in human HeLa cells assessed as early apoptotic cells at 10 uM after 24 hrs by Annexin-V-FITC/propidium iodide double staining based flow cytometry (reference value: 6.71 +/- 4.41%); type: functional
# [26] = test system: HeLa; test: Induction of p53-independent apoptosis in human HeLa cells assessed as late apoptotic/necrotic cells at 10 uM after 24 hrs by Annexin-V-FITC/propidium iodide double staining based flow cytometry (reference value: 0.88 +/- 0.72%); type: functional
# [27] = test system: HeLa; test: Induction of p53-independent apoptosis in human HeLa cells assessed as viable cells at 10 uM after 24 hrs by Annexin-V-FITC/propidium iodide double staining based flow cytometry (reference value: 88.52 +/- 11%); type: functional; conditions: read-out: Activity
# [28] = test system: HeLa; test: Induction of p53-independent apoptosis in human HeLa cells assessed as dead cells at 10 uM after 24 hrs by Annexin-V-FITC/propidium iodide double staining based flow cytometry (reference value: 3.89 +/- 0.3%); type: functional
# [29] = Induction of apoptosis in tumor promotion-sensitive mouse JB6 Cl41 cells assessed as early apoptotic cells at 2.5 uM after 24 hrs by Annexin-V-FITC/propidium iodide staining based flow cytometry (reference value: 2.15 +/- 1.18%); type: cell-based; conditions: jb6 cl41, 24 h
# [30] = Induction of apoptosis in tumor promotion-sensitive mouse JB6 Cl41 cells assessed as late apoptotic/necrotic cells at 2.5 uM after 24 hrs by Annexin-V-FITC/propidium iodide staining based flow cytometry (reference value: 0.53 +/- 0.47%); type: cell-based; conditions: jb6 cl41, 24 h
# [31] = Cytotoxicity against tumor promotion-sensitive mouse JB6 Cl41 cells expressing luciferase reporter gene assessed as cell viability after 12 hrs by MTS assay; type: cell-based; conditions: jb6 cl41, 12 h
# Sequence of Cellular tumor antigen p53 (Mus musculus) (P02340 whole entry): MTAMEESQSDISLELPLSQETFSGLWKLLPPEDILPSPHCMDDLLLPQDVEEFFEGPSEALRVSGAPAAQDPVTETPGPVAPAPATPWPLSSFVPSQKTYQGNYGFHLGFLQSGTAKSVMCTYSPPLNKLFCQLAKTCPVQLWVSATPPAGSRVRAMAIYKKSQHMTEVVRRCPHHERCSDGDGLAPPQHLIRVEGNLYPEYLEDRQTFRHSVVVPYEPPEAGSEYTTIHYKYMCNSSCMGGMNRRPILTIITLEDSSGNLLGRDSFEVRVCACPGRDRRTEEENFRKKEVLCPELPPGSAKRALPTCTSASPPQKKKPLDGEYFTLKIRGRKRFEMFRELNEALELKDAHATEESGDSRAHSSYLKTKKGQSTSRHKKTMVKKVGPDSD
SMILES,"viability at 24 h, 2.5 µM [1] [%]",Activity [2] [%],Activity [3] [%],Activity [4] [%],"viability at 24 h, 5 µM [5] [%]",Activity [6] [%],inhibition [11],IC50 [12] [µM],IC50 [13] [µM],IC50 [14] [µM],INCC50 [15] [µM],Ratio [16],Activity [17] [%],Activity [18] [%],viability at 2.5 µM [19] [%],Activity [20] [%],Activity [21] [%],Activity [22] [%],viability at 5 µM [23] [%],Activity [24] [%],further results
CO[C@H]1O[C@H](COC2=CC(=O)c3c(O)cccc3C2=O)[C@@H](O)[C@H](O)[C@H]1O,94.3,2.35,15.33,1.93,79.4,3.36,Active,5.2,5.22,6.54,1.68,3.11,10.42,1.44,84.7,3.47,13.09,1.38,82.8,2.73,"Activity [7]: 82.93%; Activity [8]: 2.01%; viability at 24 h, 10 µM [9]: 13.3%; Activity [10]: 1.76%; Activity [25]: 32.33%; Activity [26]: 26.07%; viability at 10 µM [27]: 20.1%; Activity [28]: 21.48%; Activity [29]: 2.77%; Activity [30]: 0.62%"
COC1=CC(=O)c2c(O)ccc(O)c2C1=O,,,,,,,Active,1.8,2.16,2.49,0.73,2.97,,,,,,,,,
O=C1C=CC(=O)c2c(O)cccc21 [JUGLONE],,,,,,,Active,68.5,65.5,34.3,39.04,1.67,,,,,,,,,
CO[C@H]1O[C@H](COC2=CC(=O)c3cccc(O)c3C2=O)[C@@H](O)[C@H](O)[C@H]1O,91.3,2.63,74.65,1.06,21.2,3.07,Active,2.34,2.82,4.92,1.47,1.92,27.57,9.27,54.8,8.37,18.51,32.74,24.7,24.08,Activity [29]: 4.81%; Activity [30]: 1.28%
CO[C@H]1O[C@H](CO)[C@@H](O)[C@H](O)[C@H]1O,,,,,,,inactive,> 200,> 200,> 200,>200,,,,,,,,,,Activity [31]: Non-toxic
